Measurements from ChEMBL document CHEMBL4507268 (2021).

Tests used:
Details in all cases: Compound concentration 1000.0 nM
[1] = target: Cyclin-dependent kinase 17 (Homo sapiens) (UniProt Q00537)
[2] = target: Myosin-IIIa (Homo sapiens) (UniProt Q8NEV4)
[3] = target: Cyclin-dependent kinase 2 (Homo sapiens) (UniProt P24941)
[4] = target: MAP/microtubule affinity-regulating kinase 3 (Homo sapiens) (UniProt P27448)
[5] = target: Serine/threonine-protein kinase SIK1 (Homo sapiens) (UniProt P57059)
[6] = target: T1, Mitogen-activated protein kinase kinase kinase 5 (Homo sapiens) (UniProt Q99683)
T1 sequence (whole entry): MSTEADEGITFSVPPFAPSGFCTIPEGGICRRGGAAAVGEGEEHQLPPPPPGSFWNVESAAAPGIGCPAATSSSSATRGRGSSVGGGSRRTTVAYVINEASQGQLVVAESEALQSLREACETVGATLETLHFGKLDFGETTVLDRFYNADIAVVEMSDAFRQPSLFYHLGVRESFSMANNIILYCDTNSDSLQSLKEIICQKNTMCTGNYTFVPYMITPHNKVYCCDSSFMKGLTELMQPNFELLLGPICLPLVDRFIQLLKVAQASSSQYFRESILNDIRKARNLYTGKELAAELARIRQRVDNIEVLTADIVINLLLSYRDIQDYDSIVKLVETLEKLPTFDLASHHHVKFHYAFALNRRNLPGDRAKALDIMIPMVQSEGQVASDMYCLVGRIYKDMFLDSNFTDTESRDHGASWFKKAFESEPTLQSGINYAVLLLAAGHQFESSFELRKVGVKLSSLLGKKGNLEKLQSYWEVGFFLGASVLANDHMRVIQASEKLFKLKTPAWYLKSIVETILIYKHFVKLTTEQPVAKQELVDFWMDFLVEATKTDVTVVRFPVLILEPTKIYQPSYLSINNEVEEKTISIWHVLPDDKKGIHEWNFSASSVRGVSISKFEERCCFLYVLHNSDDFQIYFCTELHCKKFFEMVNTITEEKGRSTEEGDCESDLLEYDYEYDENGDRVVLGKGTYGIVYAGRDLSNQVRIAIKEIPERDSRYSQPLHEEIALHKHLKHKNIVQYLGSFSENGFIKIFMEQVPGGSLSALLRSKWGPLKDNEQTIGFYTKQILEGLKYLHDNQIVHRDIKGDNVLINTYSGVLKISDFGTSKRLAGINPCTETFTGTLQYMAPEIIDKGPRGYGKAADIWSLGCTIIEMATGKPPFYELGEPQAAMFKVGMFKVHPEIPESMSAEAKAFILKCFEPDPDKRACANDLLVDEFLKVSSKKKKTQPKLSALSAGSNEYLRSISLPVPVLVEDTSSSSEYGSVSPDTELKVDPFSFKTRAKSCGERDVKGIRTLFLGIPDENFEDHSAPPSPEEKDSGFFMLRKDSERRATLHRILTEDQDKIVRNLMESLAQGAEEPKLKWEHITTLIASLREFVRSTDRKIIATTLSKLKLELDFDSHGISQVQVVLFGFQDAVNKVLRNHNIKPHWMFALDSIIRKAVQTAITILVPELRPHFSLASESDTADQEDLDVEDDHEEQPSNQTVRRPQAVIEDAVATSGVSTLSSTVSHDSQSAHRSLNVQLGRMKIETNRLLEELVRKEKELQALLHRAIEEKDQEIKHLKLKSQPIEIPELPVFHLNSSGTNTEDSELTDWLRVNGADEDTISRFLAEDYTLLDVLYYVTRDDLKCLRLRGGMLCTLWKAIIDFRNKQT

[7] = target: cAMP-dependent protein kinase catalytic subunit beta (Homo sapiens) (UniProt P22694)
[8] = target: STE20-like serine/threonine-protein kinase (Homo sapiens) (UniProt Q9H2G2)
Chain of STE20-like serine/threonine-protein kinase (Homo sapiens) (Q9H2G2 whole entry, looked up): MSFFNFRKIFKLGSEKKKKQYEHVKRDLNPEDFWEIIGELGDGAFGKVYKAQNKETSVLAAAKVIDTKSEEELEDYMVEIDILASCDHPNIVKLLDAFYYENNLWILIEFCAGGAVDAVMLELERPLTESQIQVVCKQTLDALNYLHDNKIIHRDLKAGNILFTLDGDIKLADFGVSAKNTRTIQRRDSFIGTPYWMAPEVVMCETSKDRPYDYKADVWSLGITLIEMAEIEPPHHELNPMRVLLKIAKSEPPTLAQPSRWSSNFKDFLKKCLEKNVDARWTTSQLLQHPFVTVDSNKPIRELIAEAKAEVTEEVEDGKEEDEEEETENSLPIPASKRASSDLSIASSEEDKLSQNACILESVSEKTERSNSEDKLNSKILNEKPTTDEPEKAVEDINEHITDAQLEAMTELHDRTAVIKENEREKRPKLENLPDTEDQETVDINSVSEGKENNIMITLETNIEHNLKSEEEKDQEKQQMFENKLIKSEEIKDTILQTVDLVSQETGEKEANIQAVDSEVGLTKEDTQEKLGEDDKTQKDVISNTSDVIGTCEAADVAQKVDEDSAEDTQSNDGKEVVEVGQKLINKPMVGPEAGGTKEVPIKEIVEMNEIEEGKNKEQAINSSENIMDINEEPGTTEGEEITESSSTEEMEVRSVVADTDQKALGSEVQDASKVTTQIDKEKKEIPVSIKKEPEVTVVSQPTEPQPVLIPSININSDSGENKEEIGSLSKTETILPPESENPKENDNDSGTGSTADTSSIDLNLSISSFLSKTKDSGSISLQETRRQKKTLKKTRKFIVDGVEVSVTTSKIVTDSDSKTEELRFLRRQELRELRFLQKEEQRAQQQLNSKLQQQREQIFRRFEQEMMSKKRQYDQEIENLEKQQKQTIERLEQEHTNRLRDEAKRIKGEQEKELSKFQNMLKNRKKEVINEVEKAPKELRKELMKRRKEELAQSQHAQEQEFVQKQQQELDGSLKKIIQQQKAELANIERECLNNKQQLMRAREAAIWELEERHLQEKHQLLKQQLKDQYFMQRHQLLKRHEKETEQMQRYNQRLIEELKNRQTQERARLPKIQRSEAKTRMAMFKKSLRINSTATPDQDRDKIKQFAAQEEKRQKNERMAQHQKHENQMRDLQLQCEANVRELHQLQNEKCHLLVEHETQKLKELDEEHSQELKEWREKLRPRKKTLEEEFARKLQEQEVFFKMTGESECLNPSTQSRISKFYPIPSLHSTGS

[9] = test system: Tyrosine-protein kinase ABL1 (Homo sapiens), P00519 [H396P]
[10] = test system: Tyrosine-protein kinase ABL1 (Homo sapiens), P00519 [H396P]; remark: listed apart in the source
[11] = target: Serine/threonine-protein kinase 26 (Homo sapiens) (UniProt Q9P289)
Chain of Serine/threonine-protein kinase 26 (Homo sapiens) (Q9P289 2-416 limits assumed): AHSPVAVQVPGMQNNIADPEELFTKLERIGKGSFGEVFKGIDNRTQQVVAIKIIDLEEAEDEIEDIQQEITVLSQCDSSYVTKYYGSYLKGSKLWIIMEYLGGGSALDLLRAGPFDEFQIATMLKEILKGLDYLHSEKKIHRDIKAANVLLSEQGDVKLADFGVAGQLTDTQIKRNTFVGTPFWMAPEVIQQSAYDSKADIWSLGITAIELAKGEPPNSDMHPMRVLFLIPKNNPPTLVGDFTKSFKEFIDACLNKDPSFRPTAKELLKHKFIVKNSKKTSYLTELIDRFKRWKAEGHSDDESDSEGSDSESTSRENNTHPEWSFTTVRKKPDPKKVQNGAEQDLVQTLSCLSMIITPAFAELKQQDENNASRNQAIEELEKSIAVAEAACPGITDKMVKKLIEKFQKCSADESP

[12] = target: T2, Rhodopsin kinase GRK7 (Homo sapiens) (UniProt Q8WTQ7)
T2 sequence (whole entry): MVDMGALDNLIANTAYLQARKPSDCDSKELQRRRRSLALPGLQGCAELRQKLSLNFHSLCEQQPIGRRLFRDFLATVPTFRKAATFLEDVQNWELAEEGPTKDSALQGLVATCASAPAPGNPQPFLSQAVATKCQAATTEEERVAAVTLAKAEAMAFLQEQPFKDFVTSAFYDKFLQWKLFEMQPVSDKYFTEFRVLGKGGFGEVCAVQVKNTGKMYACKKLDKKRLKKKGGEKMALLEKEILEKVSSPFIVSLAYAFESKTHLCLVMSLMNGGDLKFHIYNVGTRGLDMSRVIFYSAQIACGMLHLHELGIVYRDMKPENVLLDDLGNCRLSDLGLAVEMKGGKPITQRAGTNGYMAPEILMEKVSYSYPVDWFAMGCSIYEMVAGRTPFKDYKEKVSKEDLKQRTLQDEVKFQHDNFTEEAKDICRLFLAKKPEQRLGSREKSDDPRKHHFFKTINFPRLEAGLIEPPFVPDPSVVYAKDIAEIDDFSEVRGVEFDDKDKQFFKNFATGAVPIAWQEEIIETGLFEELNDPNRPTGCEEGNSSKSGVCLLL

[13] = target: Cyclin-dependent kinase 16 (Homo sapiens) (UniProt Q00536)
Chain of Cyclin-dependent kinase 16 (Homo sapiens) (Q00536 whole entry): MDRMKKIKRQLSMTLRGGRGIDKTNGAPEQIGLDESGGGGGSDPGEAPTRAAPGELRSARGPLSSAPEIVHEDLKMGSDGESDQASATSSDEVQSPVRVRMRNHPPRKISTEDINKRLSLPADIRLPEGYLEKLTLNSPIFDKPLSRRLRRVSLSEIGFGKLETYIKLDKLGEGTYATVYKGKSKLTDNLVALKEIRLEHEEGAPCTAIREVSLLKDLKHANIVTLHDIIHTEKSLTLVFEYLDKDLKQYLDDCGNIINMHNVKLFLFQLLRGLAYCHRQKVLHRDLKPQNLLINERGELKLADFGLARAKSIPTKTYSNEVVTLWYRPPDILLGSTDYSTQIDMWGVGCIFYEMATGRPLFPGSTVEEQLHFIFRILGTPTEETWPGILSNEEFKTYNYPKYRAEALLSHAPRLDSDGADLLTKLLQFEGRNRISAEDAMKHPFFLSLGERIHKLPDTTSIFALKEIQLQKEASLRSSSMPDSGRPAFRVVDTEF

[14] = target: Mitogen-activated protein kinase 14 (Homo sapiens) (UniProt Q16539)
[15] = target: Mitogen-activated protein kinase kinase kinase kinase 4 (Homo sapiens) (UniProt O95819)
Chain of Mitogen-activated protein kinase kinase kinase kinase 4 (Homo sapiens) (O95819 2-1239 limits assumed): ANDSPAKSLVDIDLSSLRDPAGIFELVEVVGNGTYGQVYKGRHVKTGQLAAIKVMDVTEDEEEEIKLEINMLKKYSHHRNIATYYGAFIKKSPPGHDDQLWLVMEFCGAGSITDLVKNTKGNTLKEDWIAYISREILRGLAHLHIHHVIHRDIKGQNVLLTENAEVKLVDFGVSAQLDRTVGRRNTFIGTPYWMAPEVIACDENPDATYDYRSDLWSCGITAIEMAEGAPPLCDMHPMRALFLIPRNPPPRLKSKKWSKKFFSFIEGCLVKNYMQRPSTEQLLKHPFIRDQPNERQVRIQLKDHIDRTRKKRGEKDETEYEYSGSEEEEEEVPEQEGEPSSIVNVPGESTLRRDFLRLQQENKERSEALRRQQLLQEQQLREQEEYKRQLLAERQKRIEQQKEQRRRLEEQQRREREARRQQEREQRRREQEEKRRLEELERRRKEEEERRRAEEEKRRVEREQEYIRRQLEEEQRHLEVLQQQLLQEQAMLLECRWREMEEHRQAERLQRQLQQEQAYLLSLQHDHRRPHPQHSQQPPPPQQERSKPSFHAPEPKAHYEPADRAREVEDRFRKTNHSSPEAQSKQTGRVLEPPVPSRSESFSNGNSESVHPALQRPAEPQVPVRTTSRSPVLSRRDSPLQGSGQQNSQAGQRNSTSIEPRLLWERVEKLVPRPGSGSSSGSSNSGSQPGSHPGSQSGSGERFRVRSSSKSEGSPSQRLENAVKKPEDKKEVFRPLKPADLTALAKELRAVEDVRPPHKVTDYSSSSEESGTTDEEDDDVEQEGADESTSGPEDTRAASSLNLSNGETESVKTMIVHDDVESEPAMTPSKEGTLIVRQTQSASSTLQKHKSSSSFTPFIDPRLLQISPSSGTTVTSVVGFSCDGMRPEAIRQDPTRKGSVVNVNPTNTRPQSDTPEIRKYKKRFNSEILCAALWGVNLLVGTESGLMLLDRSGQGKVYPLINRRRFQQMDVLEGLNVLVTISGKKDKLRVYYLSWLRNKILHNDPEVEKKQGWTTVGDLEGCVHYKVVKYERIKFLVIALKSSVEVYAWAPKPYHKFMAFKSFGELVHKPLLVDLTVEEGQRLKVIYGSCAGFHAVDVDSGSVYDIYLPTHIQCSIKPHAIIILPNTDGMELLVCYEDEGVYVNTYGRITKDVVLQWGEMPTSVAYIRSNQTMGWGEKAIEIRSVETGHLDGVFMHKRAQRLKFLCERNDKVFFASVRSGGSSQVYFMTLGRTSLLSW

[16] = target: Serine/threonine-protein kinase WNK3 (Homo sapiens) (UniProt Q9BYP7)
[17] = target: Epithelial discoidin domain-containing receptor 1 (Homo sapiens) (UniProt Q08345)
Chain of Epithelial discoidin domain-containing receptor 1 (Homo sapiens) (Q08345 whole entry, the tested form may be a part): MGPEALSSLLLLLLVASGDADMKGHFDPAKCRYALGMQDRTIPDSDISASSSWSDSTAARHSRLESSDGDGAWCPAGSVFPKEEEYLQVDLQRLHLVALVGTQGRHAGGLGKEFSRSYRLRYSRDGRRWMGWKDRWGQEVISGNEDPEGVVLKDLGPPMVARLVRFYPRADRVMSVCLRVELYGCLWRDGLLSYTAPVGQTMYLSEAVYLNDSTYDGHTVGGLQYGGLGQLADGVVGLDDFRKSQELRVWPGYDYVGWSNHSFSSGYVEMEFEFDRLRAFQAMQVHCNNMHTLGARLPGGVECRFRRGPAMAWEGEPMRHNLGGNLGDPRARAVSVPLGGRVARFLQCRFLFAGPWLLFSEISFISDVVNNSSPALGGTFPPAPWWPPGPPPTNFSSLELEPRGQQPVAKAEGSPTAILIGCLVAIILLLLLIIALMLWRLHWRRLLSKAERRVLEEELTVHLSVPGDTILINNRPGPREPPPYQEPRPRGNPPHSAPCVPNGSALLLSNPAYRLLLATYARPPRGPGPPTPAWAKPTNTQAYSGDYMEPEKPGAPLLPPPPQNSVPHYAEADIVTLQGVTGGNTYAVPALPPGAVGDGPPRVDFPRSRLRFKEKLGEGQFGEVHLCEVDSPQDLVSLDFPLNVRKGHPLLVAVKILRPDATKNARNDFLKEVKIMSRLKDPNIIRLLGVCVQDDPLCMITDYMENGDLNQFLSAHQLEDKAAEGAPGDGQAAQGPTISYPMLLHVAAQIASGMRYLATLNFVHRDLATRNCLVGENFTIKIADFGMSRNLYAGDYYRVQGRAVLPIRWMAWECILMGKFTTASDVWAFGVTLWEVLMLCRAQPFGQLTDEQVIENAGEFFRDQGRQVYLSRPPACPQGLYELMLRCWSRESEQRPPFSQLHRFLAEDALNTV

Measured: residual activity

Chain of MAP/microtubule affinity-regulating kinase 3 (Homo sapiens) (P27448 whole entry, looked up): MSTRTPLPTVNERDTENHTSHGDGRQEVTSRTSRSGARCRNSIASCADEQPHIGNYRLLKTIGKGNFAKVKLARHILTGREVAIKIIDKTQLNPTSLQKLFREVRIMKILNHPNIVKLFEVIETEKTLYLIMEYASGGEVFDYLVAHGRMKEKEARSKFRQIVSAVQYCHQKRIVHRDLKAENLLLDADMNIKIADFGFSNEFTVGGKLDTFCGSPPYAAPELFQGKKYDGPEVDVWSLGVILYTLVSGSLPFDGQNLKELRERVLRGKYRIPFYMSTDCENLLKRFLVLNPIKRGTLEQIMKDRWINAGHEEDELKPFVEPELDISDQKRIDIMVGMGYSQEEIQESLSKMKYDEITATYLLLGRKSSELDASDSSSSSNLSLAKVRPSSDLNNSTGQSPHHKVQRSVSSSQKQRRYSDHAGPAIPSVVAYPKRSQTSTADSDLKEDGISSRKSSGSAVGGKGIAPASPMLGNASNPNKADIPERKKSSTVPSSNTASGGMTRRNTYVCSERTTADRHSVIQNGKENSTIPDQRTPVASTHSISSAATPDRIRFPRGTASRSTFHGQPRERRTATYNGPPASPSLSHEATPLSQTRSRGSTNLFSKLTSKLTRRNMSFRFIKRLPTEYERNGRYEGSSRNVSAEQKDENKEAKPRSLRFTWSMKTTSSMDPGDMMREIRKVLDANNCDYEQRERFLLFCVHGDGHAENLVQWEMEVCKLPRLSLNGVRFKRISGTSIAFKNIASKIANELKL

Cc1nc(C2CCN(C(=O)c3ccc(OC(F)(F)F)cc3N)CC2)c2ncc(N3CCN(C)CC3)cc2n1 [BAY-693]
inactive: [1] 88% | [2] 100% | [3] 87% | [4] 89% | [5] 100% | [6] 99% | [7] 100% | [8] 97% | [9] 89% | [10] 78% | [11] 100% | [12] 81% | [13] 100% | [14] 100% | [15] 100% | [16] 94% | [17] 100%

CN1CCN(c2cnc3c(C4CCN(C(=O)c5ccc(OC(F)(F)F)cc5N)CC4)ncnc3c2)CC1 [BAY-885]
inactive: [1] 93% | [2] 100% | [3] 100% | [4] 93% | [5] 92% | [6] 92% | [7] 91% | [8] 96% | [9] 100% | [10] 76% | [11] 98% | [12] 87% | [13] 100% | [14] 99% | [15] 100% | [16] 100% | [17] 100%
